How the values were obtained:
[1] = Sweetness evaluation against sucrose solutions in citric acid buffer (Example 7); assay type: in vivo, human
Protocol: 4-Amino-5-(cyclohexyloxy)-2-methylquinoline-3-carboxylic acid was evaluated at 30 ppm. First, the sweetness level of the compound was evaluated against three solutions of 1%, 1.5%, and 2% sucrose. Second, the sweetness level of a solution containing D-psicose and 30 ppm amino-5-(cyclohexyloxy)-2-methylquinoline-3-carboxylic acid was evaluated against 5%, 6%, and 7% sucrose solutions.
A solution containing a blend of sucrose and D-psicose with a total sweetness equivalent to 5.5% sucrose (3.5% sucrose and 2% SE D-psicose) was also made and evaluated for its sweetness with and without addition of 30 ppm 4-amino-5-(cyclohexyloxy)-2-methylquinoline-3-carboxylic acid. All solutions were made in citric acid/potassium citrate buffer.
(§1) Beverages were kept in the refrigerator overnight and tasted cold the following day. Two panelists evaluated the beverages. Bottles were removed from the refrigerator and about 20 ml of beverage poured in 2 oz-plastic cups. Mineral water was given for thorough palate rinsing before tasting and between tasting different samples. Unsalted crackers were also given.

[2] = Sucrose equivalence of D-psicose (background statement); assay type: in vivo, human; conditions: 2% (w/w) in a citric acid/potassium citrate matrix
Description: The sweetness of a non-sucrose sweetener can be measured against a sucrose reference by determining the non-sucrose sweetener's sucrose equivalence. Typically, taste panelists are trained to detect sweetness of reference sucrose solutions containing between 1-15% sucrose (w/v). Other non-sucrose sweeteners are then tasted at a series of dilutions to determine the concentration of the non-sucrose sweetener that is as sweet as a given percent sucrose reference. For example, if a 1% solution of a sweetener is as sweet as a 10% sucrose solution, then the sweetener is said to be 10 times as potent as sucrose, and has 10% sucrose equivalence.

[3] = Taste test with eight panelists, sweetness rated against 1%, 1.5% and 2% sucrose controls (Example 1); assay type: in vivo, human
Protocol: Taste tests were carried out with eight panelists. Bottles were removed from the refrigerator and about 50 ml of beverage was poured into 4 oz-plastic cups. Panelists were given mineral water to rinse their mouth before tasting and between tasting different samples. Unsalted crackers were also given to panelists to eat. Taste tests were done in two rounds: a first round in which a sample of D-psicose in citric acid/potassium citrate buffer and a sample of D-psicose and Reb-C in citric acid/potassium citrate buffer were evaluated, and a second round in which a sample of D-psicose in a lemon lime carbonated soft drink and a sample of D-psicose and Reb-C in a lemon lime carbonated soft drink were evaluated. In each round, panelists were asked to e choose the sweetest sample among the pair, then rate the sweetness level against control solutions of 1%, 1.5%, and 2% sucrose in citric acid/potassium citrate buffer.

[4] = Sweetness evaluation against sucrose solutions in citric acid buffer, two panelists (Example 5); assay type: in vivo, human
Protocol: First, the sweetness level of 2,4-dihydroxybenzoic acid was evaluated against three solutions of 1%, 2%, and 3% sucrose. Second, the sweetness level of a solution containing D-psicose and 500 ppm 2,4-dihydroxybenzoic acid was evaluated against 5%, 6.5%, and 7% sucrose solutions. All solutions were made in citric acid/potassium citrate buffer.
as §1, with “for” for “for thorough”

[5] = Sweetness evaluation against sucrose solutions in citric acid buffer, three panelists (Example 6); assay type: in vivo, human; conditions: D-psicose (5% SE) in citric acid buffer
[6] = sucrose part of the blend; from US20130041046A; cited from earlier work
[7] = Sweetness evaluation against sucrose solutions in citric acid buffer, two panelists (Example 8); assay type: in vivo, human
Protocol: The sweetness level of D-tagatose and FEMA GRAS FLAVOR 4701 was evaluated against 5%, 6%, and 7% sucrose solutions. All solutions were made in citric acid/potassium citrate buffer Beverages were made and chilled at 4° C. before tasting. Two panelists evaluated the beverages. Bottles were removed from the refrigerator and about 20 ml of beverage poured in 2 oz-plastic cups. Mineral water was given to panelists for palate rinsing before tasting and between tasting different samples. Unsalted crackers were also given.

[8] = Sweetness recognition threshold concentration by taste testing; assay type: in vivo, human
Description: The term “sweetness recognition threshold concentration,” as generally used herein, is the lowest known concentration of a sweet compound that is perceivable by the human sense of taste, typically around 1.0% sucrose equivalence (1.0% SE). While the particular sweetness recognition threshold concentration between sweetness enhancers can vary, generally the concentration of sweetness enhancer is below 500 ppm, such as, for example, from about 5 ppm to about 300 ppm, from about 50 ppm to about 200 ppm or from about 100 ppm to about 200 ppm.
Generally, the sweetness enhancers may enhance or potentiate the sweet taste of sweeteners without providing any noticeable sweet taste by themselves when present at or below the sweetness recognition threshold concentration of a given sweetness enhancer; however, the sweetness enhancers may themselves provide sweet taste at concentrations above their sweetness recognition threshold concentration. The sweetness recognition threshold concentration is specific for a particular enhancer and can vary based on the beverage matrix. The sweetness recognition threshold concentration can be easily determined by taste testing increasing concentrations of a given enhancer until greater than 1.0% sucrose equivalence in a given beverage matrix is detected. […]

## O=C(CO)[C@H](O)[C@H](O)[C@H](O)CO [D-psicose]
[1]; D-psicose (5% SE) in citric acid buffer
  sweetness against 5% and 6% sucrose solutions: 5 % sucrose
[2]
  sucrose equivalence: about 1.26%
[3]; 2% D-psicose in the absence of Rebaudioside C
  sweetness equivalence: 1.2 % sucrose
[3]; lemon-lime carbonated soft drink, citric acid buffer, D-psicose about 2% by weight, embodiment statement
  detected sucrose equivalence before addition of Rebaudioside C: about 1.2%
[4]; D-psicose solution (5% SE), citric acid buffer
  sweetness against 5% and 6.5% sucrose solutions: 5 % sucrose
[5]
  sweetness against 5% and 6.5% sucrose solutions: 5 % sucrose

## Cc1nc2cccc(OC3CCCCC3)c2c(N)c1C(=O)O [4-amino-5-(cyclohexyloxy)-2-methylquinoline-3-carboxylic acid]
[1]; D-psicose part of the blend (2% SE)
  sweetness with 30 ppm enhancer in combination with D-psicose individually: 3 % SE
[1]; added at or below its sweetness recognition threshold, b195 after b194 (D-psicose and sucrose), embodiment statement
  increase of detected sucrose equivalence: about 5.0%
[6]
  sweetness with 30 ppm enhancer in combination with sucrose individually: 7%

## O=C(CO)[C@@H](O)[C@@H](O)[C@H](O)CO [D-tagatose]
[7]; D-tagatose (5% SE) in citric acid buffer
  sweetness against 5% and 6% sucrose solutions: 5 % sucrose

## CCCNC(=O)C(C)(C)COc1cccc2c1C(N)=NS(=O)(=O)N2 [FEMA GRAS flavor 4701]
[7]; 15 ppm alone in citric acid buffer
  sucrose equivalence: less than 1.0%

## O=C(O)c1ccc(O)cc1O [2,4-dihydroxybenzoic acid]
[4]; 500 ppm alone in citric acid buffer
  sweetness against 1%, 2% and 3% sucrose solutions: < 1 % sucrose
[4]; added at or below its sweetness recognition threshold to a beverage containing D-psicose, embodiment statement
  increase of detected sucrose equivalence: about 1.5%

## Rebaudioside C
[3]; 220 ppm in citric acid/potassium citrate buffer, alone
  sucrose equivalence: less than 1.0%
[3]; about 220 ppm added to lemon-lime carbonated soft drink, citric acid buffer, D-psicose about 2% by weight, embodiment statement
  detected sucrose equivalence after addition of Rebaudioside C: about 2.0%
[8]; in a citric acid/potassium citrate buffer
  sweetness recognition threshold concentration: 270 ppm
[8]; in cola
  sweetness recognition threshold concentration: about 345 ppm

From US10849339B2, “Beverages containing rare sugars” (The Coca-Cola Company, priority 2013, dated 2020)
